Results published in patent publication US20120065165A1, “COMPOSITIONS AND METHODS OF TREATING ENDOTHELIAL DISORDERS” (ARGINETIX, INC, priority 2008, published 2012).

Legend:
old rat aorta = assay: ROS production in aortic rings (DHE fluorescence); assay type: cell-based; conditions: aged rat aortas
Text: ABH improves endothelial function by inhibiting arginase and consequently increasing NO production (by increasing L-arginine availability to eNOS) and decreasing levels of ROS (by preventing eNOS uncoupling). […] Aortic rings were dissected and pinned down, endothelial side up, on a silastic coated culture dish, and then exposed to either the NO-sensitive dye DAF, or the O2-sensitive dye DHE. Since the interaction of NO or ROS with its specific dye is cumulative, the rate of production of each species is proportional to the slope of the fluorescence emitted from the dye as measured using epifluorescence microscopy. […] SNP endothelial-independent NO donor was included as a control (Santhanam et al 2007).
This supports the hypothesis that arginase inhibition results in increased vascular NO production. A corollary of this effect is a decrease in ROS production by re-coupling eNOS to NO production. […] This resulted from deranged NOS activity (uncoupled NOS), since ROS levels could be reduced using the NOS-inhibitor nitro-L-arginine methyl ester (FIG. 6C). […] Similar techniques are used to examine whether ABH can restore NO production and decrease ROS production in vascular endothelial cells and corporal tissue from type 2 diabetic rats.

rat aortic rings = assay: Vasorelaxation of aortic rings in organ chambers after 28 days oral ABH; assay type: in vivo
Description: To investigate whether these changes in vascular stiffness could be related to specific measures of endothelial function, rats were euthanized following treatment, and the thoracic aortas dissected and placed in organ chambers as previously described (White, et al., 2006 Hypertension 47: 245-251). Rat aortic rings were pre-constricted using phenylephrine (1 μM), and vasorelaxant response to the endothelial-dependent (NO mediated) vasodilator acetylcholine (ACh), administered at 1 μM to 10 μM, was determined. […] ABH had no effect on vascular endothelial relaxation in young rats.

diabetic ZDF rats = assay: ABH plus PDE5 inhibitor in diabetic ZDF rats: erectile function and vasorelaxation (Example 8); assay type: in vivo, rat; conditions: ABH alone
Description: The effects of ABH and PDE5 inhibitors, singly and in combination, in the ZDF model of type 2 diabetes are tested.
ZLC rats are maintained on a normal diet. […] Ten to twenty minutes prior to each in vivo vasorelaxation experiment, animals will receive a single intravenous dose of the PDE5 inhibitor, sildenafil citrate (Viagra; either 1 or 2 mg/kg iv) or vehicle alone. […] Peak intracavernous pressure, ICP/mean arterial pressure (MAP), and total ICP (area under the erectile curve) are determined in response to intra-cavernous administration of the endothelium-dependent vasodilator ACh, and in response to direct cavernous nerve stimulation. Animals will then be euthanized, and aortas and penile vascular tissues are collected. Biochemical (arginase, NO, eNOS, ROS) and functional (contraction and relaxation in organ baths) indicators of endothelial health are determined in aortic rings and cavernous strips.

aged Fisher rats = assay: Erectile function: intracavernous pressure after cavernous nerve stimulation in aged rats; assay type: in vivo, rat; conditions: ABH 6 mg/kg in drinking water 28 days
Description: Aged (22-26 months) Fisher rats were given either ABH (6 mg/kg in their drinking water) or plain water for 28 days. Young (4-8 months) were given plain water for 28 days. Rats were then anesthetized and erectile function was evaluated as an indicator of vascular function, by measuring intra-cavernous pressure following electrical stimulation of the cavernous nerve using an electrode placed around the pelvic nerve which innervates the penis (Cama, et al., 2003 Biochemistry 42: 8445-8451). The change in intracavernosal pressure was measured via a catheter placed in the corpora cavernosa. A range of stimulation frequencies were used to measure relaxation effects (and consequentially vascular dependent erectile responses) over their entire functional range.

[1] = cavernous nerve stimulation, vs controls

N[C@@H](CCCCB(O)O)C(=O)O [ABH, 2(S)-Amino-6-boronohexanoic acid]
ROS production (old rat aorta): significantly reduced | responses to the endothelial-independent NO donor SNP in aortic rings (rat aortic rings; after 28 days oral ABH): not affected | vascular relaxation to acetylcholine (ACh) in aortic rings (rat aortic rings; aged rats, 28 days oral ABH, rings pre-constricted with phenylephrine 1 μM): substantially improved | vascular endothelial relaxation in aortic rings (rat aortic rings; young rats): no effect | erectile function (diabetic ZDF rats): some positive effects | all penile hemodynamic parameters after CNS (aged Fisher rats): marked improvement | ratio of mean peak intracavernous pressure (ICP) to mean arterial pressure (MAP) (aged Fisher rats; [1]): marked increase | total ICP (area under the erectile curve) (aged Fisher rats; [1]): marked increase
